Experimental data published in article PMC4579064 (Toxicology and applied pharmacology, 2015).

How the values were obtained:
CYP3A5 = CYP3A5 (Homo sapiens, UniProt P20815); assay: recombinant CYP activity with fluorogenic substrate; assay type: biochemical
recombinant human CPR [1] = target: T1, recombinant human CPR (Homo sapiens, UniProt P16435); assay: CPR-mediated redox cycling, hydroxyl radical formation; assay type: biochemical; settings: menadione; Fe/EDTA, terephthalate
T1 sequence (P16435 1-677): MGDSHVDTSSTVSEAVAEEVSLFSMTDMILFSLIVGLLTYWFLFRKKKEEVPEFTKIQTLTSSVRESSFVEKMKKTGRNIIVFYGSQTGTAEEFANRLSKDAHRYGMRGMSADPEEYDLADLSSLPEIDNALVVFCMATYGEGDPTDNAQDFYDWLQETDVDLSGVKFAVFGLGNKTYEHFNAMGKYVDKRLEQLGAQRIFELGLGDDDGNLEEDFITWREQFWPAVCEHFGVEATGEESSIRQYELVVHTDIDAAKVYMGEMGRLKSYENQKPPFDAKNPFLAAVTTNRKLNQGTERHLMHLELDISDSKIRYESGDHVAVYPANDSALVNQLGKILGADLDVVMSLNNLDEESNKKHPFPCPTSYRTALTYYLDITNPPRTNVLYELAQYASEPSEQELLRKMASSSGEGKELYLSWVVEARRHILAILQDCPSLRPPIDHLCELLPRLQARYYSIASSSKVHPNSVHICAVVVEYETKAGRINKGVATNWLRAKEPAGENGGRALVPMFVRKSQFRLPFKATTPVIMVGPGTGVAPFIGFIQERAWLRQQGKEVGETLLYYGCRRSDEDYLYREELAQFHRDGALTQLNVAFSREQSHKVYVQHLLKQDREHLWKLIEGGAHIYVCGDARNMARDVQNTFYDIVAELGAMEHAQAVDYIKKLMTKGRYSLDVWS

CYP2D6 = CYP2D6 (Homo sapiens, UniProt P10635); assay: recombinant CYP activity with fluorogenic substrate
Sequence of CYP2D6 (P10635 whole entry, one chain of several): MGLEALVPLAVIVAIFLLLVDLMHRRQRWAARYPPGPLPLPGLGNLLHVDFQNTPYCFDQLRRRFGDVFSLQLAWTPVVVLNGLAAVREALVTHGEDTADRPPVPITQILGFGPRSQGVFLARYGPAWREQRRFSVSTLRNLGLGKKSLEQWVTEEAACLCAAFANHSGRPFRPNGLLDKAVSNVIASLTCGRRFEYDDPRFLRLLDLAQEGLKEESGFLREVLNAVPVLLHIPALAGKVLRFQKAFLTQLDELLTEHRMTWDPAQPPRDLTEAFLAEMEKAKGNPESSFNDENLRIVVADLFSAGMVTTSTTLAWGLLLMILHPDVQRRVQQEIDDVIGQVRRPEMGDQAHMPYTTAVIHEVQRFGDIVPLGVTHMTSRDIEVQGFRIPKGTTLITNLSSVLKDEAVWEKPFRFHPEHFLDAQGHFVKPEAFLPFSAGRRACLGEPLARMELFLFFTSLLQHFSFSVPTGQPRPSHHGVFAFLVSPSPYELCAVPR

[2] = assay type: in vivo, rat; settings: menadione 20 min after parathion; 60 min
CYP3A4 = CYP3A4 (Homo sapiens, UniProt P08684)
Sequence of CYP3A4 (P08684 2-503 limits assumed): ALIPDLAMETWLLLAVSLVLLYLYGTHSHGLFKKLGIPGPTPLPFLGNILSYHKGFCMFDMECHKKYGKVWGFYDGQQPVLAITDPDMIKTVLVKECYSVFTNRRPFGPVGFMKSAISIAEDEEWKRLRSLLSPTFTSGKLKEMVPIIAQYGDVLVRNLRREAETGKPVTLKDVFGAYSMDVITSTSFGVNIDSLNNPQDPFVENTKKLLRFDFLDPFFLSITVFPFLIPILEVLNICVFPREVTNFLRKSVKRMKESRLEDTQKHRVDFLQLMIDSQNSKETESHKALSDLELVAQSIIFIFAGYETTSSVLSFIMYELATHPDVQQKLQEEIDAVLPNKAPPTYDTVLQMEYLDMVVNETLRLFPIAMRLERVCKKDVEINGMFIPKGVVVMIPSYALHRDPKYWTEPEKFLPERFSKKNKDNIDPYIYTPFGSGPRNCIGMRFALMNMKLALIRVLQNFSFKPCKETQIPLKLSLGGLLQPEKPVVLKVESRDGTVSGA

recombinant human CPR [3] = target: T1, recombinant human CPR; assay: CPR-mediated redox cycling, H2O2 formation; assay type: biochemical; settings: menadione as redox cycling substrate of CPR; Amplex Red
brain ChE = brain ChE activity in parathion-treated rats; assay type: in vivo, rat; settings: parathion 8 mg/kg oral, menadione 40 mg/kg ip 20 min after parathion, 60 min
CYP1B1 = target: T2, CYP1B1 (Homo sapiens, UniProt Q16678); assay: recombinant CYP activity with fluorogenic substrate; assay type: biochemical
T2 sequence (Q16678 1-543): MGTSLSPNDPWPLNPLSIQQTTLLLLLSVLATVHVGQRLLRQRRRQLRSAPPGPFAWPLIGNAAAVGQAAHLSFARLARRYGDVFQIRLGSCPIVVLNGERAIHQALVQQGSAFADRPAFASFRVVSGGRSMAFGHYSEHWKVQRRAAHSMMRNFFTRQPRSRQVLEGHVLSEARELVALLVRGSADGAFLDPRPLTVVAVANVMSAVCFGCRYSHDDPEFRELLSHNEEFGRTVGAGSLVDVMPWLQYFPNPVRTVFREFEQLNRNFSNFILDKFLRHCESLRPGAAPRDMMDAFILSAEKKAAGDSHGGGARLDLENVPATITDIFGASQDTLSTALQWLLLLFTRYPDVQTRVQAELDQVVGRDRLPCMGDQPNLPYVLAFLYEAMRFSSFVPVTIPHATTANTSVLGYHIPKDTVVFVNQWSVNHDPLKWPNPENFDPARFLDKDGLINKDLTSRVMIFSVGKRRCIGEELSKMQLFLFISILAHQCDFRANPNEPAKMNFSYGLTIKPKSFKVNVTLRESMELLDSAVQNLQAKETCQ
T2 sequence (P16435 2-677 partner): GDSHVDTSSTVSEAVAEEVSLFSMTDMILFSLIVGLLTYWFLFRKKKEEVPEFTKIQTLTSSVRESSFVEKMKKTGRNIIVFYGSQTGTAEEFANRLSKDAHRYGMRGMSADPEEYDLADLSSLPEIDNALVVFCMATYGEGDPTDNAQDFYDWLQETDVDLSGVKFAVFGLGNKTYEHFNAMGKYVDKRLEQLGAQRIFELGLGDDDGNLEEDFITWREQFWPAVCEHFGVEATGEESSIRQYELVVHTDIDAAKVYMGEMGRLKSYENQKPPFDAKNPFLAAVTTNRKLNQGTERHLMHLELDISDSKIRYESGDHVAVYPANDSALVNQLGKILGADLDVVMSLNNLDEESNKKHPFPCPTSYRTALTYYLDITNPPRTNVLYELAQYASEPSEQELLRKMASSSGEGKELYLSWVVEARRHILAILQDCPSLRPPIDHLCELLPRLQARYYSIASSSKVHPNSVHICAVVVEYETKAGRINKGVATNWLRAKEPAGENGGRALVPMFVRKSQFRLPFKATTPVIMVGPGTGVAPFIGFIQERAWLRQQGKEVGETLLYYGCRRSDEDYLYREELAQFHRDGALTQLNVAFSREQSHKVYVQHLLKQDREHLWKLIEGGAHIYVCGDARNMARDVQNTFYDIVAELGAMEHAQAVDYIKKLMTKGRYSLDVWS

CYP1A2 = target: T3, CYP1A2 (Homo sapiens, UniProt P05177); settings: 50 µM menadione; parathion 200 µM
T3 sequence (P05177 2-516 limits assumed): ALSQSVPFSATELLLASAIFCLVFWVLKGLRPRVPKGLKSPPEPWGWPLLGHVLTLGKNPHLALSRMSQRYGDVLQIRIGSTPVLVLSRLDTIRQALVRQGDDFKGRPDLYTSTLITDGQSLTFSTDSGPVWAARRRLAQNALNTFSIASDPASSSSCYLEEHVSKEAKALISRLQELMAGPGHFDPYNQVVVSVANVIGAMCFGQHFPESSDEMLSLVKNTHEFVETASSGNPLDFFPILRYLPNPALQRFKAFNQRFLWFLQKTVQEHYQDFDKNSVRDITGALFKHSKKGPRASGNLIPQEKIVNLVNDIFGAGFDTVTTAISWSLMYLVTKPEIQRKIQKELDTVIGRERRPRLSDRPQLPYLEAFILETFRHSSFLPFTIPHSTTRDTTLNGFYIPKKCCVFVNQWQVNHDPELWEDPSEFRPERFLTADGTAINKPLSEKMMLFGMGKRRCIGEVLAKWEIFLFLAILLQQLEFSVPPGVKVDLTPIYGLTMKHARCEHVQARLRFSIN

Sequence of CYP3A5 (P20815 whole entry, one chain of several): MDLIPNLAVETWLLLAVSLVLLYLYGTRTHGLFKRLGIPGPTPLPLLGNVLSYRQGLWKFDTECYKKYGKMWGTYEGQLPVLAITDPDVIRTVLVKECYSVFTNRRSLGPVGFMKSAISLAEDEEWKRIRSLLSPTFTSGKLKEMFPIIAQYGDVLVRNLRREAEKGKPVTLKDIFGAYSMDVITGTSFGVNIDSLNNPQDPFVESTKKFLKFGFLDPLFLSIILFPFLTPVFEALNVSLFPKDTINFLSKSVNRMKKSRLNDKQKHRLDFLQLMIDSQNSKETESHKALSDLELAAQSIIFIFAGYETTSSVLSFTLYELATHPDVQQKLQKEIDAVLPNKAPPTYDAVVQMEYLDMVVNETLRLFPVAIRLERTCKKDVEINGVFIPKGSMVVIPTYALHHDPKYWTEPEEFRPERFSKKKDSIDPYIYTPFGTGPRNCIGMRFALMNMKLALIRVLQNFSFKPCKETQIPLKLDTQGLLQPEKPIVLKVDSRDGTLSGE

For `CC1=CC(=O)c2ccccc2C1=O` [menadione, 2-methylnaphthalene-1,4-dione], the IC50 (CYP3A5) was 9.77 ± 3.33 µM, the “Vmax for formation of 2-hydroxyterephthalate, a marker of hydroxyl radicals” value (recombinant human CPR [1]) was 1.2 µmol/min/mg CPR protein and the IC50 (CYP2D6) was 4.6 ± 0.87 µM. For the same compound, the “liver levels of parathion” value [2] was “without altering”, the parathion in blood [2] was “striking increase” and the “serum and brain parathion levels” value [2] was “significant increases”. For the same compound, the paraoxon formation (CYP3A4) was “marked decrease”, the “Vmax for H2O2 formation” value (recombinant human CPR [3]) was 4.4 µmol/min/mg CPR protein and the “forebrain ChE inhibited” value (brain ChE) was 11%. For the same compound, the “hindbrain ChE inhibited” value (brain ChE) was 17%, the IC50 (CYP1B1) was 7.02 ± 0.53 µM and the “CYP1A2 mediated activation of parathion and AChE inhibition” value (CYP1A2) was “completely abolished”.
